This note sets out measurements from patent publication US20250345317A1, “New pharmaceutical compounds, methods and uses thereof” (BBIT-THERAPEUTICS, LDA., priority 2020, published 2025).

The test system of one assay is HFF-1. Put plainly: Growth inhibition, SRB assay, normal HFF-1 cells. Particulars: Homo sapiens, HFF-1, 48 h. The assay is classed as cell-based, human. The source says: (§1) Table 2 refers to the growth inhibitory effect of COMP, olaparib and cisplatin (CDDP) in a panel of human immortalized breast (T47D, MCF-7, MDA-MB-231, MDA-MB-468, SK-BR-3 and HCC1937), ovarian and endocervical (OCVAR, SKOV-3, […],IGROV-1 and HeLa), pancreatic (PANC-1 and MIAPACA), neuroblastoma (SHSY-5Y), lung (NCI-H460), prostate (VCaP) melanoma (A375 and SK-MEL-5) and glioblastoma (SF-208) cancer cells, immortalized normal MCF10a and HFF1 human cells, and patient-derived ovarian (PD-OVCA #1, #9, #41, #49 and #62) cancer cells. […] Data are mean±SEM (n=5).
(§2) In an embodiment, IC50 values were determined by Sulforhodamine B (SRB) or MTS [3-(4,5-dimethylthiazol-2-yl)-5-(3-carboxymethoxyphenyl)-2-(4-sulfophenyl)-2H-tetrazolium] assay in immortalized and PD-OVCA cells, respectively. Cancer cells were plated in 96-well plates and incubated for 24 hours. Cells were then exposed to serial dilutions of compounds for 48 hours. The solvent DMSO corresponding to the maximum concentration used in these assays (0.025%) was included as control. Results are the mean±S.E.M. of 3-5 independent experiments.

For assay [1], the system named is MDA-MB-231, HCC1937 and IGROV-1 cells. Put plainly: DNA damage by comet assay. The assay is classed as cell-based, human. To be noted: 6 μM and 12 μM, 48 hours. On the procedure:
FIG. 8 illustrates the effect of 6 and 12 μM COMP on triple-negative breast cancer and ovarian cancer cells' DNA damage after 48 hours of treatment, measured by comet assay. FIG. 8A are representative images (scale bar=20 μm; 200× magnification).
In an embodiment, COMP decreased homologous recombination DNA repair and disrupted the BRCA1-BARD1 interaction.

In assay [2] the test system is breast cancer cells (T47D, MCF-7, MDA-MB-231, MDA-MB-468, SK-BR-3 and HCC1937). Put plainly: Growth inhibition, panel of breast cancer cells. The assay is classed as cell-based. To be noted: Homo sapiens, range over T47D, 48 hours. The procedure:
In an embodiment, the activity of COMP compound was tested in an array of human normal and cancer cell lines (Table 2, FIG. 2).
as §1, §2

The test system of another assay is SF-208. Briefly: Growth inhibition, SRB assay, SF-208. The assay is classed as cell-based. To be noted: Homo sapiens, SF-208, wild-type BRCA1/2, 48 hours.
Text: as §1, §2
On the technique in general: In SRB staining, fixed cells bind dye roughly in proportion to their protein.

The next assay relates to BRCA1-BARD1 interaction. Put plainly: Co-IP of BRCA1-BARD1 interaction. The assay is classed as cell-based, human. To be noted: 12 and 20 μM; 18 hours (MDA-MB-231, HCC1937), 24 hours (IGROV-1). The procedure: (FIGS. 11A-D) Co-IP was performed in MDA-MB-231 (FIG. 11A), HCC1937 (FIG. 11B) and IGROV-1 (FIG. 11C) cells treated with 12 and 20 μM COMP for 18 hours (in MDA-MB-231 and HCC1937 cells) and 24 hours (in IGROV-1 cells). Assay was performed using the Pierce classic magnetic IP and Kit followed by western blot detection. In FIGS. 11A-C, representative immunoblots are shown; whole-cell lysate (Input).

Assay [3] deals with triple-negative breast cancer and ovarian cancer cells (MDA-MB-231, IGROV-1, HCC1937). Briefly: Colony-formation assay. The assay is classed as cell-based, human. Particulars: 8 days (MDA-MB-231 and IGROV-1), 16 days (HCC1937) of treatment. The procedure: FIG. 4 illustrates the effect of COMP on (A-B) colony formation of cancer cells after 8 days (MDA-MB-231 and IGROV-1) and 16 days (HCC1937) of treatment. In FIG. 4A, representative experiments are shown.
In an embodiment, colony-formation assay was performed.

Assay [4] has as its system PD-OVCA#9 (mutBRCA1: c. 4389C > G; mutBRCA2: c6252delT). Briefly: Growth inhibition, MTS assay, PD-OVCA#9. The assay is classed as cell-based, human. To be noted: Homo sapiens, PD-OVCA#9, pathogenic mutant BRCA1/2, 48 hours.
Text: as §1, §2
Background: Tetrazolium assays rely on reduction of a dye to a coloured formazan, in cell work by metabolically active cells.

The subject of the next assay is HCC1937 cells. Briefly: Wound healing assay (cell migration). The assay is classed as cell-based, human. Particulars: 1.9 μM. The procedure:
FIG. 12 illustrates the prevention of HCC1937 cells migration by COMP. Confluent cells were treated with 1.9 μM COMP or DMSO and observed at different time-points in the wound healing assay (scale bar=50 μm and magnification=100×).
In an embodiment, COMP prevented cell migration of triple-negative breast cancer cells. The effect of COMP on the migration ability of HCC1937 cells was also studied.

Another assay deals with MCF10a. Briefly: Growth inhibition, SRB assay, normal MCF10a cells. To be noted: Homo sapiens, MCF-10A, 48 hours. The format is cell-based, human.
Text: as §1, §2

The next assay concerns IGROV-1 tumors. Briefly: In vivo antitumor activity in xenograft mice. Particulars: 2 mg/kg intraperitoneal, seven administrations; compared to vehicle or 50 mg/kg of olaparib. The procedure: FIG. 14 illustrates the in vivo antitumor activity of COMP. C57BL/6-Rag2−/−IL2rg−/− xenograft mice, carrying IGROV-1 cells, were treated with vehicle (control), or 2 mg/kg of COMP or 50 mg/kg of olaparib by intraperitoneal injection three times per week (seven administrations in total). The treatment was initiated when palpable tumors were established (^˜100 mm3). […] In FIGS. 14A-C, data are mean±SEM, n=13 animals.

A further assay has as its system PD-OVCA#49. Put plainly: Growth inhibition, MTS assay, PD-OVCA#49. To be noted: Homo sapiens, PD-OVCA#49, wild-type BRCA1/2, 48 hours. The format is cell-based, human.
Text: as §1, §2

In another assay the test system is RAD51. Put plainly: RAD51 foci formation by immunofluorescence. The format is cell-based, human. To be noted: 12 μM, 48 hours. On the procedure:
(§3) FIG. 10 illustrates the effect of 12 μM COMP on (A) γH2AX expression levels and on (FIG. 10B) γH2AX and RAD51 foci formation, and BRCA1 foci formation and cellular localization after 48 hours of treatment. […] FIG. 10B are representative images generated using Fiji software (scale bar=100 μm; 400 × magnification).

Another assay relates to BRCA1. Put plainly: BRCA1 cellular localization by immunofluorescence. The assay is classed as cell-based, human. To be noted: 12 μM, 48 hours; MDA-MB-231, HCC1937 and IGROV-1 cells. On the procedure:
as §3

In another assay the test system is OVCAR-3. Briefly: Growth inhibition, SRB assay, OVCAR-3. To be noted: Homo sapiens, OVCAR-3, 48 h. The format is cell-based, human.
Text: as §1, §2

A further assay deals with PD-OVCA#62. Briefly: Growth inhibition, MTS assay, PD-OVCA#62. The format is cell-based, human. To be noted: Homo sapiens, PD-OVCA#62, wild-type BRCA1/2, 48 hours.
Text: as §1, §2

For orientation: IC50 means the concentration that inhibits the measured activity by half. Low readings indicate greater potency in that assay, high ones weaker potency in that assay. On to `CC[C@H]1CN(C)C2Cc3c([nH]c4ccccc34)/C(=N/Nc3ccc(Br)cn3)C[C@@H]1[C@@H]2C(=O)OC` [COMP, methyl (5R,6S,14S,E)-8-(2-(5-bromopyridin-2-yl) hydrazineylidene)-5-ethyl-3-methyl-2,3,4,5,6,7,8,9-octahydro-1H-2,6-methanoazecino [5,4-b]indole-14-carboxylate], for which the IC50 was 33.6 µM in the assay on HFF-1 (HFF1 normal cells, 48 hours (second Table 2)); 33.6 µM in the assay with HFF-1 (HFF-1 normal cells, 48 hours); 4.4 to 12 µM in [2]; 12.5 ± 0.45 µM in the assay with SF-208; 5.1 ± 1 µM in assay [4]; 29.5 µM with MCF10a. The IC50 was 15.1 ± 1.4 µM in the assay on PD-OVCA#49; 13.9 µM in the assay with OVCAR-3 (OVCAR-3, BRCA1 wild-type, 48 hours (second Table 2)); 13.9 ± 1.7 µM with OVCAR-3 (OVCAR-3, wild-type BRCA1/2, 48 hours); 14.2 ± 2.9 µM in the assay with PD-OVCA#62. Moreover, the “percentage of comet-positive cells (tail DNA, tail moment)” value in assay [1] is recorded as “significantly increased”. In addition, in the assay with BRCA1-BARD1 interaction, the “BRCA1-BARD1 interaction (BARD1 co-immunoprecipitated with BRCA1)” value is given as “disruption of the BRCA1-BARD1 interaction”. Moreover, the “colony-forming ability of cancer cells” value in assay [3] is reported as “significantly reduced”. In the assay on HCC1937 cells, the wound closure result is reported as “significantly reduced the wound closure”. Further, the “growth of IGROV-1 tumors” value with IGROV-1 tumors is recorded as “significantly inhibited”. Moreover, the RAD51-foci formation result in the assay with RAD51 was “pronounced reduction”. Moreover, the BRCA1 cellular localization result in the assay on BRCA1 was “triggered the nucleocytoplasmic translocation of BRCA1”.
